# According to the supplement of paper PMC10307832:
# Experiments:
# Experiment in all cases: relative viability (nuclei count vs DMSO), 5 days (fraction); higher = more cells survive
# [1] = compound: Cn1cc(-c2cnc3ccc4ccc(CS(=O)(=O)NCc5ccccn5)cc4c(=O)c3c2)cn1 [MK-8033] + Nc1nc2[nH]cc(CCc3ccc(C(=O)N[C@@H](CCC(=O)O)C(=O)O)cc3)c2c(=O)[nH]1 [Pemetrexed] (partner 0.2 µM)
# In short: (§1)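 Medians of duplicate plates are given as relative viability. That measure is the nuclei count in treated wells divided by the count in vehicle wells. Counts were taken on 4× images of lung cancer cell lines in 1536-well plates, 5 days after pin-tool dosing the day after seeding with one drug alone or a fixed anchor-drug dose plus five library-drug doses (not always all listed) in √10 steps.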
# [2] = compound: Cn1cc(-c2cnc3ccc4ccc(CS(=O)(=O)NCc5ccccn5)cc4c(=O)c3c2)cn1 [MK-8033] + CC1(C)CCC(c2ccc(Cl)cc2)=C(CN2CCN(c3ccc(C(=O)NS(=O)(=O)c4ccc(N[C@H](CCN5CCOCC5)CSc5ccccc5)c(S(=O)(=O)C(F)(F)F)c4)cc3)CC2)C1 [Navitoclax] (partner 0.5 µM)
# In short: as §1
# [3] = compound: CCc1c2c(nc3ccc(OC(=O)N4CCC(N5CCCCC5)CC4)cc13)-c1cc3c(c(=O)n1C2)COC(=O)[C@]3(O)CC [Irinotecan] + Cc1cc(Nc2cc(N3CCN(C)CC3)nc(Sc3ccc(NC(=O)C4CC4)cc3)n2)n[nH]1 [Tozasertib] (partner 0.1 µM)
# In short: as §1
# [4] = compound: CCc1c2c(nc3ccc(OC(=O)N4CCC(N5CCCCC5)CC4)cc13)-c1cc3c(c(=O)n1C2)COC(=O)[C@]3(O)CC [Irinotecan] + CC(C)C[C@H](NC(=O)[C@H](Cc1ccccc1)NC(=O)c1cnccn1)B(O)O [Bortezomib] (partner 0.002 µM)
# In short: as §1
Cell Line,relative viability ([1]; first compound 0.02 µM),relative viability ([1]; first compound 0.06325 µM),relative viability ([1]; first compound 0.2 µM),relative viability ([1]; first compound 0.6325 µM),relative viability ([1]; first compound 2 µM),relative viability ([2]; first compound 0.02 µM),relative viability ([2]; first compound 0.06325 µM),relative viability ([2]; first compound 0.2 µM),relative viability ([2]; first compound 0.6325 µM),relative viability ([2]; first compound 2 µM),relative viability ([3]; first compound 0.6325 µM),relative viability ([3]; first compound 2 µM),relative viability ([3]; first compound 6.325 µM),relative viability ([3]; first compound 20 µM),relative viability ([4]; first compound 0.6325 µM),relative viability ([4]; first compound 2 µM),relative viability ([4]; first compound 6.325 µM),relative viability ([4]; first compound 20 µM)
SK-MES-1,0.986,0.949,0.904,0.892,0.853,1.23,1.16,1.16,1.23,1.18,0.659,0.473,0.248,0.151,–,–,–,–
HOP-62,0.358,0.415,0.326,0.3,0.32,1.03,0.89,1.03,1.12,0.955,0.234,0.328,0.249,0.215,0.642,0.2,0.112,0.179
NCI-H520,0.625,0.697,0.607,0.652,0.602,1.14,1.03,1.02,1.06,0.975,0.446,0.514,0.445,0.427,0.446,0.477,0.252,0.138
EBC-1,–,–,–,–,–,0.428,0.383,0.474,0.404,0.13,–,–,–,–,0.421,0.437,0.474,0.143
BEN,0.924,0.694,0.752,0.765,0.758,0.067,0.0568,0.0526,0.0753,0.0791,0.378,0.499,0.447,0.34,0.547,0.561,0.218,0.296
NCI-H322M,0.63,0.59,0.56,0.599,0.621,1.24,1.08,1.18,1.2,1.17,0.461,0.511,0.411,0.202,1.34,0.859,0.564,0.347
LU99A,0.192,0.183,0.158,0.168,0.187,0.751,0.667,0.794,0.819,0.593,0.257,0.223,0.153,0.225,0.42,0.326,0.18,0.249
NCI-H2405,1.04,1.01,0.963,1.06,1.11,0.825,0.727,0.733,0.847,0.933,–,0.605,0.354,0.246,0.573,0.931,0.662,0.299
NCI-H1395,0.921,0.758,0.693,0.914,0.815,1.38,1.02,1.04,1.15,1.07,0.607,0.716,0.594,0.494,–,–,–,–
HCC-44,0.672,0.695,0.681,0.691,0.603,0.874,0.911,0.912,0.963,0.899,–,1.17,0.377,0.308,0.74,0.752,0.229,0.351
NCI-H441,0.246,0.274,0.254,0.266,0.255,0.566,0.448,0.569,0.573,0.415,0.497,0.443,0.374,0.295,0.413,0.378,0.435,0.358
Calu-6,–,–,–,–,–,0.784,0.799,0.691,0.869,0.905,–,–,–,–,0.816,0.551,0.296,0.114
CAL-12T,1.26,1.18,1.12,1.35,1.18,1.19,1.2,1.15,0.92,1.28,–,0.419,0.322,0.197,0.944,0.978,0.491,0.324
HCC-78,0.936,0.923,0.928,0.587,0.851,0.596,0.665,0.767,–,0.774,0.411,0.356,0.21,0.0831,0.404,0.393,0.242,0.257
NCI-H2170,0.275,0.266,0.299,0.257,0.26,0.559,0.55,0.612,0.586,0.597,0.801,0.701,0.236,0.181,–,–,–,–
NCI-H1623,–,–,–,–,–,–,–,–,–,–,0.343,0.34,0.227,0.227,–,–,–,–
NCI-H23,0.632,0.517,0.512,–,0.497,0.938,0.777,0.682,0.779,0.837,0.24,0.256,0.235,0.218,0.941,0.664,0.291,0.306
COR-L 105,1.22,0.744,1.14,1.12,1.05,0.689,0.777,0.779,0.694,0.906,0.346,0.373,0.458,0.273,0.676,0.798,0.627,0.291
LOU-NH91,0.375,0.38,0.35,0.366,0.318,0.686,–,0.674,0.675,0.695,0.568,0.533,0.358,0.222,0.486,0.442,0.359,0.413
NCI-H650,0.982,0.955,0.863,0.933,0.83,–,–,–,–,–,0.703,0.553,0.202,0.181,0.689,0.507,0.262,0.385
NCI-H2023,0.21,0.211,0.216,0.22,0.222,1.08,0.881,0.933,0.943,0.847,0.355,0.408,0.205,0.104,0.435,0.686,0.162,0.0682
NCI-H1563,0.736,0.695,0.738,0.69,0.794,–,–,–,–,–,–,–,–,–,0.598,0.891,0.871,0.477
LCLC-103H,0.504,0.446,0.457,0.482,0.458,–,–,–,–,–,0.431,0.425,0.301,0.32,0.813,0.76,0.518,0.557

Cell Line,relative viability ([1]; first compound 0.02 µM),relative viability ([1]; first compound 0.06325 µM),relative viability ([1]; first compound 0.2 µM),relative viability ([1]; first compound 0.6325 µM),relative viability ([1]; first compound 2 µM),relative viability ([2]; first compound 0.02 µM),relative viability ([2]; first compound 0.06325 µM),relative viability ([2]; first compound 0.2 µM),relative viability ([2]; first compound 0.6325 µM),relative viability ([2]; first compound 2 µM),relative viability ([3]; first compound 0.6325 µM),relative viability ([3]; first compound 2 µM),relative viability ([3]; first compound 6.325 µM),relative viability ([3]; first compound 20 µM),relative viability ([4]; first compound 0.6325 µM),relative viability ([4]; first compound 2 µM),relative viability ([4]; first compound 6.325 µM),relative viability ([4]; first compound 20 µM)
HCC-15,0.222,0.221,0.236,0.237,0.194,0.744,0.706,0.679,0.668,0.668,–,0.332,0.164,0.151,0.603,0.623,0.374,0.176
NCI-H838,0.249,0.246,0.227,0.27,0.22,1.13,1.14,1.01,1.22,1.08,0.283,0.491,0.23,0.242,0.986,0.588,0.583,0.149
NCI-H2009,1.01,1.01,0.923,1.08,0.997,1.16,1.12,1.08,1.15,1.14,0.599,0.566,0.334,0.13,0.294,0.515,0.228,0.0808
NCI-H2228,0.274,0.343,0.365,0.308,0.325,1.37,0.876,0.754,0.54,0.839,0.259,0.31,0.348,0.287,0.689,0.685,0.514,0.343
NCI-H460,0.0659,0.0591,0.0606,0.0625,0.0649,0.975,0.921,1.01,1.19,1.04,0.374,0.186,0.0861,0.0393,0.677,0.353,0.0854,0.0632
NCI-H522,1.07,0.967,0.941,0.891,1.04,–,–,–,–,–,0.506,0.502,0.526,0.486,–,–,–,–
NCI-H1703,–,–,–,–,–,0.967,1.08,0.988,1.12,0.924,–,–,–,–,0.267,0.426,0.33,0.112
NCI-H1793,0.682,–,0.725,0.739,0.729,0.454,–,0.291,0.38,0.508,–,0.345,0.217,0.219,–,–,–,–
NCI-H596,0.463,0.436,0.489,0.506,0.53,0.923,0.884,0.856,0.857,0.951,0.798,0.878,0.632,0.624,0.867,1.09,0.709,0.79
NCI-H358,0.165,0.181,0.158,0.167,0.164,–,–,–,–,–,0.104,0.141,0.145,0.128,–,–,–,–
LK-2,0.329,0.263,0.239,0.335,0.258,0.907,0.853,0.807,0.924,0.772,0.183,0.192,0.287,0.352,–,–,–,–
NCI-H1944,0.703,0.478,0.676,0.583,0.613,1.15,–,0.991,1.02,1.03,0.222,0.202,0.167,0.135,–,–,–,–
NCI-H727,–,–,–,–,–,0.377,0.435,0.311,0.465,0.486,0.524,0.551,0.47,0.507,0.358,0.57,0.463,0.464
NCI-H1648,0.733,–,0.538,0.81,0.835,–,–,–,–,–,0.39,0.346,0.402,0.291,–,–,–,–
NCI-H1299,–,–,–,–,–,1.04,1.03,1.03,1.07,1.01,–,–,–,–,0.932,0.824,0.487,0.415
NCI-H1792,0.789,0.64,0.62,0.69,0.872,0.826,0.649,0.593,0.61,0.653,–,–,–,–,0.955,1.17,0.486,0.192
IA-LM,–,–,–,–,–,0.712,0.618,0.907,0.912,0.696,–,–,–,–,0.722,0.355,0.197,0.0773
ABC-1,–,–,–,–,–,–,–,–,–,–,–,0.236,0.211,0.114,–,0.276,0.324,0.103
SW 900,0.489,0.401,0.47,0.507,0.463,–,–,–,–,–,0.379,0.528,0.439,0.485,–,–,–,–
NCI-H2342,0.729,0.805,0.773,0.814,0.752,–,–,–,–,–,0.488,0.528,0.445,0.372,–,–,–,–
A549,–,–,–,–,–,1.22,1.13,1.16,1.19,1.14,–,–,–,–,–,–,–,–
NCI-H661,0.907,0.867,0.876,0.909,0.905,–,–,–,–,–,0.372,0.372,0.469,0.333,0.701,0.609,0.354,0.285
